Data taken from paper PMC7523345 (Investigational new drugs, 2018).

Assays:
solid tumour xenografts = conditions: including 3 breast, 1 NSCLC, 1 pancreatic carcinoma; nonclinical; cited from earlier work
[1] = in vivo; cited from earlier work
Deltex1 = Deltex1 expression in peripheral blood; type: in vivo, human; conditions: 4 mg BIW
[2] = system: human T-ALL xenograft models; conditions: single agent; nonclinical; cited from earlier work

Cc1cccc2c1NC(=O)[C@@H](NC(=O)[C@H](CCC(F)(F)F)[C@H](CCC(F)(F)F)C(N)=O)N=C2c1cccc(F)c1 [BMS-986115]
Solid tumour xenografts with anti-tumour activity (solid tumour xenografts): 5 out of 7
Main pharmacological toxicities in animal studies [1]: dose-dependent gastrointestinal (GI) toxicity, lymphoid depletion, and interruption of ovarian follicle maturation
Inhibition of geometric mean relative expression of Deltex1 (Deltex1): > 50%
Efficacy in human T-ALL xenograft models [2]: effective as a single agent
